Source: ChEMBL document CHEMBL3885881, “DrugMatrix”

Species on record: Rattus norvegicus
Assay: DrugMatrix - Regimen: Daily Repeat
Format: toxicity, organism-based, Sprague-Dawley
Parameters: regimen Daily Repeat, gender Male, age 6-8 weeks
Details: in vivo, po, route oral GAVAGE, […]; for ABSOLUTE BASOPHIL / ABSOLUTE EOSINOPHIL / ABSOLUTE LYMPHOCYTE / ABSOLUTE MONOCYTE / ABSOLUTE SEGMENTED NEUTROPHIL / BASOPHIL / EOSINOPHIL / ERYTHROCYTE COUNT / HEMATOCRIT / HEMOGLOBIN / LEUKOCYTE COUNT / LYMPHOCYTE / MEAN CORPUSCULAR HEMOGLOBIN / MEAN CORPUSCULAR HEMOGLOBIN CONCENTRATION / MEAN CORPUSCULAR VOLUME / MONOCYTE / NEUTROPHIL / NUCLEATED RED BLOOD CELLS / PLATELET COUNT: tissue Blood; for ALANINE AMINOTRANSFERASE / ALBUMIN / ALKALINE PHOSPHATASE / ASPARTATE AMINOTRANSFERASE / BLOOD UREA NITROGEN / CARBON DIOXIDE / CHLORIDE / CHOLESTEROL / CREATINE PHOSPHOKINASE / CREATININE / GLUCOSE / LACTATE DEHYDROGENASE / LIPASE / PHOSPHORUS / POTASSIUM / SODIUM / TOTAL BILIRUBIN / TOTAL PROTEIN / URIC ACID: tissue Plasma
[1] = 75 mg/kg, 72 h, dose level High, time 3 day
[2] = 75 mg/kg, 120 h, dose level High, time 5 day
[3] = 72 h, dose 7.5 mg/Kg, dose level Low, time 3 day
[4] = 120 h, dose 7.5 mg/Kg, dose level Low, time 5 day

## C[C@@H]1CC[C@@]2(OC1)O[C@H]1[C@@H](O)[C@H]3[C@@H]4CC[C@H]5C[C@@H](O[C@@H]6O[C@H](CO)[C@H](O[C@@H]7O[C@H](CO)C(O)[C@H](O[C@@H]8OC[C@@H](O)[C@H](O)[C@H]8O)[C@H]7O[C@@H]7O[C@H](CO)[C@H](O)[C@H](O[C@@H]8O[C@H](CO)[C@@H](O)[C@H](O)[C@H]8O)[C@H]7O)[C@H](O)[C@H]6O)[C@H](O)C[C@]5(C)[C@H]4CC[C@]3(C)[C@H]1[C@@H]2C (some centres not stated) [DIGITONIN]
[1]
  ABSOLUTE BASOPHIL: 0 CELLS/uL
  ABSOLUTE EOSINOPHIL: 39.67 CELLS/uL
  ABSOLUTE LYMPHOCYTE: 12631.67 CELLS/uL
  ABSOLUTE MONOCYTE: 0 CELLS/uL
  ABSOLUTE SEGMENTED NEUTROPHIL: 1028.67 CELLS/uL
  BASOPHIL: 0%
  EOSINOPHIL: 0.33%
  ERYTHROCYTE COUNT: 5.46 x10E6/uL
  HEMATOCRIT: 34.9%
  HEMOGLOBIN: 13.03 G/DL
  LEUKOCYTE COUNT: 13.7 x10E3/uL
  LYMPHOCYTE: 92.33%
  MEAN CORPUSCULAR HEMOGLOBIN: 23.83 pg
  MEAN CORPUSCULAR HEMOGLOBIN CONCENTRATION: 37.37 G/DL
  MEAN CORPUSCULAR VOLUME: 63.8 fL
  MONOCYTE: 0%
  NEUTROPHIL: 7.33%
  NUCLEATED RED BLOOD CELLS: 0 /100WBC
  PLATELET COUNT: 1082.67 x10E3/uL
  ALANINE AMINOTRANSFERASE: 64 u/L
  ALBUMIN: 4.23 G/DL
  ALKALINE PHOSPHATASE: 395.33 u/L
  ASPARTATE AMINOTRANSFERASE: 86.33 u/L
  BLOOD UREA NITROGEN: 16.67 mg/dL
  CARBON DIOXIDE: 25.33 mmol/L
  CHLORIDE: 102 MEQ/L
  CHOLESTEROL: 78 mg/dL
  CREATINE PHOSPHOKINASE: 233.67 u/L
  CREATININE: 0.17 mg/dL
  GLUCOSE: 178.33 mg/dL
  LACTATE DEHYDROGENASE: 118.33 u/L
  LIPASE: 9 u/L
  PHOSPHORUS: 13.13 mg/dL
  POTASSIUM: 6.32 MEQ/L
  SODIUM: 144.17 MEQ/L
  TOTAL BILIRUBIN: 0.23 mg/dL
  TOTAL PROTEIN: 5.93 G/DL
  URIC ACID: 2.1 mg/dL
[2]
  ABSOLUTE BASOPHIL: 0 CELLS/uL
  ABSOLUTE EOSINOPHIL: 43.33 CELLS/uL
  ABSOLUTE LYMPHOCYTE: 6877 CELLS/uL
  ABSOLUTE MONOCYTE: 37 CELLS/uL
  ABSOLUTE SEGMENTED NEUTROPHIL: 776 CELLS/uL
  BASOPHIL: 0%
  EOSINOPHIL: 0.67%
  ERYTHROCYTE COUNT: 5.49 x10E6/uL
  HEMATOCRIT: 35.43%
  HEMOGLOBIN: 13.27 G/DL
  LEUKOCYTE COUNT: 7.73 x10E3/uL
  LYMPHOCYTE: 89.33%
  MEAN CORPUSCULAR HEMOGLOBIN: 24.17 pg
  MEAN CORPUSCULAR HEMOGLOBIN CONCENTRATION: 37.47 G/DL
  MEAN CORPUSCULAR VOLUME: 64.5 fL
  MONOCYTE: 0.33%
  NEUTROPHIL: 9.67%
  NUCLEATED RED BLOOD CELLS: 0 /100WBC
  PLATELET COUNT: 1285 x10E3/uL
  ALANINE AMINOTRANSFERASE: 65.67 u/L
  ALBUMIN: 4.4 G/DL
  ALKALINE PHOSPHATASE: 444.33 u/L
  ASPARTATE AMINOTRANSFERASE: 85.67 u/L
  BLOOD UREA NITROGEN: 15.67 mg/dL
  CARBON DIOXIDE: 24 mmol/L
  CHLORIDE: 100 MEQ/L
  CHOLESTEROL: 62 mg/dL
  CREATINE PHOSPHOKINASE: 202.67 u/L
  CREATININE: 0.15 mg/dL
  GLUCOSE: 146.67 mg/dL
  LACTATE DEHYDROGENASE: 137.67 u/L
  LIPASE: 8.33 u/L
  PHOSPHORUS: 10.97 mg/dL
  POTASSIUM: 5.88 MEQ/L
  SODIUM: 147.6 MEQ/L
  TOTAL BILIRUBIN: 0.23 mg/dL
  TOTAL PROTEIN: 6 G/DL
  URIC ACID: 0.83 mg/dL
[3]
  ABSOLUTE BASOPHIL: 0 CELLS/uL
  ABSOLUTE EOSINOPHIL: 77.33 CELLS/uL
  ABSOLUTE LYMPHOCYTE: 10391.33 CELLS/uL
  ABSOLUTE MONOCYTE: 34.33 CELLS/uL
  ABSOLUTE SEGMENTED NEUTROPHIL: 1397 CELLS/uL
  BASOPHIL: 0%
  EOSINOPHIL: 0.67%
  ERYTHROCYTE COUNT: 5.69 x10E6/uL
  HEMATOCRIT: 35.5%
  HEMOGLOBIN: 13.27 G/DL
  LEUKOCYTE COUNT: 11.9 x10E3/uL
  LYMPHOCYTE: 87.33%
  MEAN CORPUSCULAR HEMOGLOBIN: 23.33 pg
  MEAN CORPUSCULAR HEMOGLOBIN CONCENTRATION: 37.4 G/DL
  MEAN CORPUSCULAR VOLUME: 62.47 fL
  MONOCYTE: 0.33%
  NEUTROPHIL: 11.67%
  NUCLEATED RED BLOOD CELLS: 0 /100WBC
  PLATELET COUNT: 1266.67 x10E3/uL
  ALANINE AMINOTRANSFERASE: 59.33 u/L
  ALBUMIN: 4.13 G/DL
  ALKALINE PHOSPHATASE: 424 u/L
  ASPARTATE AMINOTRANSFERASE: 79 u/L
  BLOOD UREA NITROGEN: 14 mg/dL
  CARBON DIOXIDE: 25.67 mmol/L
  CHLORIDE: 100.67 MEQ/L
  CHOLESTEROL: 70.67 mg/dL
  CREATINE PHOSPHOKINASE: 187 u/L
  CREATININE: 0.18 mg/dL
  GLUCOSE: 156.33 mg/dL
  LACTATE DEHYDROGENASE: 100.33 u/L
  LIPASE: 8.67 u/L
  PHOSPHORUS: 12.73 mg/dL
  POTASSIUM: 6.51 MEQ/L
  SODIUM: 145.03 MEQ/L
  TOTAL BILIRUBIN: 0.23 mg/dL
  TOTAL PROTEIN: 5.73 G/DL
  URIC ACID: 2.23 mg/dL
[4]
  ABSOLUTE BASOPHIL: 0 CELLS/uL
  ABSOLUTE EOSINOPHIL: 102 CELLS/uL
  ABSOLUTE LYMPHOCYTE: 14620 CELLS/uL
  ABSOLUTE MONOCYTE: 219 CELLS/uL
  ABSOLUTE SEGMENTED NEUTROPHIL: 1792.33 CELLS/uL
  BASOPHIL: 0%
  EOSINOPHIL: 0.67%
  ERYTHROCYTE COUNT: 5.47 x10E6/uL
  HEMATOCRIT: 35.23%
  HEMOGLOBIN: 13.57 G/DL
  LEUKOCYTE COUNT: 16.73 x10E3/uL
  LYMPHOCYTE: 87.33%
  MEAN CORPUSCULAR HEMOGLOBIN: 24.83 pg
  MEAN CORPUSCULAR HEMOGLOBIN CONCENTRATION: 38.5 G/DL
  MEAN CORPUSCULAR VOLUME: 64.37 fL
  MONOCYTE: 1.33%
  NEUTROPHIL: 10.67%
  NUCLEATED RED BLOOD CELLS: 0 /100WBC
  PLATELET COUNT: 1216 x10E3/uL
  ALANINE AMINOTRANSFERASE: 57.33 u/L
  ALBUMIN: 4.3 G/DL
  ALKALINE PHOSPHATASE: 437 u/L
  ASPARTATE AMINOTRANSFERASE: 80.33 u/L
  BLOOD UREA NITROGEN: 14.67 mg/dL
  CARBON DIOXIDE: 28.67 mmol/L
  CHLORIDE: 100.67 MEQ/L
  CHOLESTEROL: 53.67 mg/dL
  CREATINE PHOSPHOKINASE: 222.67 u/L
  CREATININE: 0.22 mg/dL
  GLUCOSE: 160.33 mg/dL
  LACTATE DEHYDROGENASE: 207.67 u/L
  LIPASE: 8 u/L
  PHOSPHORUS: 11.63 mg/dL
  POTASSIUM: 6.09 MEQ/L
  SODIUM: 144.37 MEQ/L
  TOTAL BILIRUBIN: 0.2 mg/dL
  TOTAL PROTEIN: 6.03 G/DL
  URIC ACID: 1.47 mg/dL
